Experimental data as given in ChEMBL document CHEMBL5046271, “Design, Synthesis, and Biological Evaluation of 2-Formyl Tetrahydronaphthyridine Urea Derivatives as New Selective Covalently Reversible FGFR4 Inhibitors” (J Med Chem, 2022).
The source made the active and inactive calls. The rule behind the calls is not given here.

Key:
[1] = target: T1, Fibroblast growth factor receptor 1 (Homo sapiens, UniProt P11362); experiment: Inhibition of FGFR1 (unknown origin) using Tyr 04 peptide substrate measured after 2 hrs by FRET assay
[2] = target: T2, Fibroblast growth factor receptor 4 (Homo sapiens, UniProt P22455); experiment: Inhibition of FGFR4 (unknown origin) using Tyr 04 peptide substrate measured after 2 hrs by FRET assay
[3] = target: Fibroblast growth factor receptor 2 (Homo sapiens, UniProt P21802); experiment: Inhibition of FGFR2 (unknown origin) using Tyr 04 peptide substrate measured after 2 hrs by FRET assay
[4] = target: T3, Fibroblast growth factor receptor 3 (Homo sapiens, UniProt P22607); experiment: Inhibition of FGFR3 (unknown origin) using Tyr 04 peptide substrate measured after 2 hrs by FRET assay
Huh-7 = experiment: Cytotoxicity against human Huh-7 cells harboring FGF19/FGFR4 assessed as inhibition of cell growth
Hep 3B2 [5] = experiment: Cytotoxicity against human Hep 3B2.1-7 cells harboring FGF19/FGFR4 assessed as inhibition of cell growth; conditions: Hep3B
MDA-MB-453 = experiment: Cytotoxicity against human MDA-MB-453 cells harboring FGF19/FGFR4 assessed as inhibition of cell growth
NCI-H1581 [6] = experiment: Cytotoxicity against human NCI-H1581 cells harboring FGF19/FGFR4 assessed as inhibition of cell growth
[7] = target: T1, Fibroblast growth factor receptor 1; experiment: Inhibition of human FGFR1 expressed in bacterial expression system at 1000 nM by KINOMEscan assay relative to control
[8] = tested on: Fibroblast growth factor receptor 2 (Homo sapiens), P21802 [N549H]; experiment: Inhibition of human FGFR2 N549H mutant expressed in bacterial expression system at 1000 nM by KINOMEscan assay relative to control
[9] = target: T3, Fibroblast growth factor receptor 3; experiment: Inhibition of human FGFR3 expressed in bacterial expression system at 1000 nM by KINOMEscan assay relative to control
[10] = target: Proto-oncogene tyrosine-protein kinase receptor Ret (Homo sapiens) (UniProt P07949); experiment: Inhibition of human RET expressed in bacterial expression system at 1000 nM by KINOMEscan assay relative to control
[11] = target: Receptor-type tyrosine-protein kinase FLT3 (Homo sapiens) (UniProt P36888); experiment: Inhibition of human FLT3 expressed in bacterial expression system at 1000 nM by KINOMEscan assay relative to control
[12] = target: Platelet-derived growth factor receptor alpha (Homo sapiens) (UniProt P16234); experiment: Inhibition of human PDGFRA expressed in mammalian expression system at 1000 nM by KINOMEscan assay relative to control
[13] = target: Platelet-derived growth factor receptor beta (Homo sapiens) (UniProt P09619); experiment: Inhibition of human PDGFRB expressed in bacterial expression system at 1000 nM by KINOMEscan assay relative to control
[14] = target: MAP kinase-activated protein kinase 2 (Homo sapiens) (UniProt P49137); experiment: Inhibition of human MAPKAPK2 expressed in bacterial expression system at 1000 nM by KINOMEscan assay relative to control
[15] = target: MAP kinase-activated protein kinase 3 (Homo sapiens) (UniProt Q16644); experiment: Inhibition of human MAPKAPK3 expressed in bacterial expression system at 1000 nM by KINOMEscan assay relative to control
[16] = target: Transient receptor potential cation channel subfamily M member 7 (Homo sapiens) (UniProt Q96QT4); experiment: Inhibition of human CHAK1 at 1000 nM by KINOMEscan assay relative to control
[17] = target: Phosphatidylinositol 4-kinase alpha (Homo sapiens) (UniProt P42356); experiment: Inhibition of human PIK4 at 1000 nM by KINOMEscan assay relative to control
[18] = target: T4, Dual specificity protein kinase TTK (Homo sapiens) (UniProt P33981); experiment: Inhibition of human TTK at 1000 nM by KINOMEscan assay relative to control
T4 sequence (whole entry): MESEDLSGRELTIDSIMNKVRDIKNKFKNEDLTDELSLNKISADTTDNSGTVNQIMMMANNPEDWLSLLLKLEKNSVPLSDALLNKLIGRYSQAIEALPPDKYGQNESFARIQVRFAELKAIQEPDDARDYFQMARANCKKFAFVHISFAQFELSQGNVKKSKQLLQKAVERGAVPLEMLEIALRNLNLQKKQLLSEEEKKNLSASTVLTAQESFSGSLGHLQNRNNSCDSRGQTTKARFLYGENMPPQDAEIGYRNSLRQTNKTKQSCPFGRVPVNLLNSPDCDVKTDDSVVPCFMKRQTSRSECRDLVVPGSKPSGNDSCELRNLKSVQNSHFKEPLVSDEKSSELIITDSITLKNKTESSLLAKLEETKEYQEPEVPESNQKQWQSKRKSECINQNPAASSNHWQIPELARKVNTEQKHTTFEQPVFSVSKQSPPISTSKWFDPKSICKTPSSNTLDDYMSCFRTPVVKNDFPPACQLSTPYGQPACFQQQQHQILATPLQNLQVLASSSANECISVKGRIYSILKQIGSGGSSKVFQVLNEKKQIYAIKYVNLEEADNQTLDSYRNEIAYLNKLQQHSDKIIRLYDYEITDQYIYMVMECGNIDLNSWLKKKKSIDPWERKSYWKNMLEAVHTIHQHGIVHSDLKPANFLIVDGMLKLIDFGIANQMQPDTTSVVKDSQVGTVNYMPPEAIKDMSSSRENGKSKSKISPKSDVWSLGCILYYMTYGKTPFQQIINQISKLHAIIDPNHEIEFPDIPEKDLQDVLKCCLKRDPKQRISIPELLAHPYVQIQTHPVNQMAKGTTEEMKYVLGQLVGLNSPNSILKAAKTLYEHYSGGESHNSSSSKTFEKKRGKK

[19] = Half life in Sprague- Dawley rat at 5 mg/kg, iv incubation upto 24 hrs by LC-MS/MS analysis; format: ADME, organism-based; conditions: in vivo
[20] = Half life in Sprague- Dawley rat at 25 mg/kg, po incubation upto 24 hrs by LC-MS/MS analysis; format: ADME, organism-based; conditions: in vivo
[21] = Cmax in Sprague-Dawley rat at 5 mg/kg, iv incubation upto 24 hrs by LC-MS/MS analysis; format: ADME, organism-based; set-up: route intravenous, dose 5 mg/kg, time <=24; conditions: in vivo
[22] = Cmax in Sprague-Dawley rat at 25 mg/kg, po incubation upto 24 hrs by LC-MS/MS analysis; format: ADME, organism-based; set-up: route oral, dose 25 mg/kg, time <=24; conditions: in vivo
[23] = AUC(0 to t) in Sprague-Dawley rat at 5 mg/kg, iv incubation upto 24 hrs by LC-MS/MS analysis; format: ADME, organism-based; set-up: route intravenous, dose 5 mg/kg, time <=24; conditions: in vivo
[24] = AUC(0 to t) inSprague- Dawley rat at 25 mg/kg, po incubation upto 24 hrs by LC-MS/MS analysis; format: ADME, organism-based; set-up: route oral, dose 25 mg/kg, time <=24; conditions: Sprague-Dawley, in vivo
[25] = Clearance in Sprague- Dawley rat at 5 mg/kg, iv incubation upto 24 hrs by LC-MS/MS analysis; format: ADME, organism-based; conditions: in vivo
[26] = Oral bioavailability in Sprague- Dawley rat at 25 mg/kg incubation upto 24 hrs by LC-MS/MS analysis; format: ADME, organism-based; conditions: in vivo
BaF3 [27] = experiment: Inhibition of FGFR4 expressed in mouse BaF3-ETV6-FGFR4 cells assessed as inhibition of PLCgamma1 phosphorylation by Western blot analysis; format: cell-based; conditions: dose 3.7-100 nM
BaF3 [28] = experiment: Inhibition of FGFR4 expressed in mouse BaF3-ETV6-FGFR4 cells assessed as inhibition of FRS2alpha phosphorylation by Western blot analysis; format: cell-based; conditions: dose 3.7-100 nM
[29] = target: T2, Fibroblast growth factor receptor 4; experiment: Binding affinity to FGFR4 (unknown origin) assessed as dissociation constant by competition binding assay
Hep 3B2 [30] = experiment: Inhibition of colony formation in human Hep 3B2.1-7 cells incubated for 10 days by crystal violet staining based assay; format: functional, cell-based; conditions: time 10.0 day
NCI-H1581 [31] = experiment: Inhibition of colony formation in human NCI-H1581 cells incubated for 10 days by crystal violet staining based assay; format: functional, cell-based; conditions: time 10.0 day
Hep 3B2 [32] = experiment: Antiproliferative activity in human Hep 3B2.1-7 cells assessed as reduction of cell number measured after 72 hrs by CCK8 assay; format: functional, cell-based
NCI-H1581 [33] = experiment: Antiproliferative activity in human NCI-H1581 cells assessed as reduction of cell number measured after 72 hrs by CCK8 assay; format: functional, cell-based
Hep 3B2 [34] = experiment: Antitumor activity against human Hep 3B2.1-7 cells xenografted in mouse assessed as tumor growth inhibitions at 30 mg/kg, po BID administered for 12 days; format: functional; conditions: Hep3B, 288 h, time 12 day, read-out: TGI
[35] = Toxicity in mouse assessed as mortality at 30 mg/kg, po BID administered for 12 days (reference value: < 5 %); format: organism-based; conditions: in vivo, 288 h, time 12 day
[36] = Toxicity in mouse assessed as induction of weight loss at 30 mg/kg, po BID administered for 12 days (reference value: < 5 %); format: organism-based; conditions: in vivo, 288 h, time 12 day
BaF3 [37] = experiment: Inhibition of FGFR4 expressed in mouse BaF3-ETV6-FGFR4 cells assessed as inhibition of ERK phosphorylation by Western blot analysis; format: cell-based; conditions: dose 3.7-100 nM

T2 sequence (P22455 whole entry): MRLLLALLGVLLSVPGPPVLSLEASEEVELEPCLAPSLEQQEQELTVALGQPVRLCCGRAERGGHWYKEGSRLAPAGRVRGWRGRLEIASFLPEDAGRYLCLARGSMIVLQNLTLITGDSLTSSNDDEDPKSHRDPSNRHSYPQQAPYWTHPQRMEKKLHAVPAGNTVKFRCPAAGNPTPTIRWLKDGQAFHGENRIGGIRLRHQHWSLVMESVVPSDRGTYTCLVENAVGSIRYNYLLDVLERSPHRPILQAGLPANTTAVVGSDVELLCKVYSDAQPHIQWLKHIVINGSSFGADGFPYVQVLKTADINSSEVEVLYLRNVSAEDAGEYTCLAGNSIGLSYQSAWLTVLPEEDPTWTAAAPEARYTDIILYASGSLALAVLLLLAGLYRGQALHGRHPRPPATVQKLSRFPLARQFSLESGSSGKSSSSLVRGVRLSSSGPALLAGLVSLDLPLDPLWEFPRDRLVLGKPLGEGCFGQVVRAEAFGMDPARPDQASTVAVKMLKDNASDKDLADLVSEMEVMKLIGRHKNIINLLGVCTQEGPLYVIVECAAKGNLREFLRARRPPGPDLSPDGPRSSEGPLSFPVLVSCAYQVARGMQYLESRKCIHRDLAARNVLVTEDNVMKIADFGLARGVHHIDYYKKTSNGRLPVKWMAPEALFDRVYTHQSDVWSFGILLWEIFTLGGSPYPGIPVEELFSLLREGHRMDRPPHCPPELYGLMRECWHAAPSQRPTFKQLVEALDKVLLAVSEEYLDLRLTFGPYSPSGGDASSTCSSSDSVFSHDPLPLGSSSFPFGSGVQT
Chain of Receptor-type tyrosine-protein kinase FLT3 (Homo sapiens) (P36888 whole entry): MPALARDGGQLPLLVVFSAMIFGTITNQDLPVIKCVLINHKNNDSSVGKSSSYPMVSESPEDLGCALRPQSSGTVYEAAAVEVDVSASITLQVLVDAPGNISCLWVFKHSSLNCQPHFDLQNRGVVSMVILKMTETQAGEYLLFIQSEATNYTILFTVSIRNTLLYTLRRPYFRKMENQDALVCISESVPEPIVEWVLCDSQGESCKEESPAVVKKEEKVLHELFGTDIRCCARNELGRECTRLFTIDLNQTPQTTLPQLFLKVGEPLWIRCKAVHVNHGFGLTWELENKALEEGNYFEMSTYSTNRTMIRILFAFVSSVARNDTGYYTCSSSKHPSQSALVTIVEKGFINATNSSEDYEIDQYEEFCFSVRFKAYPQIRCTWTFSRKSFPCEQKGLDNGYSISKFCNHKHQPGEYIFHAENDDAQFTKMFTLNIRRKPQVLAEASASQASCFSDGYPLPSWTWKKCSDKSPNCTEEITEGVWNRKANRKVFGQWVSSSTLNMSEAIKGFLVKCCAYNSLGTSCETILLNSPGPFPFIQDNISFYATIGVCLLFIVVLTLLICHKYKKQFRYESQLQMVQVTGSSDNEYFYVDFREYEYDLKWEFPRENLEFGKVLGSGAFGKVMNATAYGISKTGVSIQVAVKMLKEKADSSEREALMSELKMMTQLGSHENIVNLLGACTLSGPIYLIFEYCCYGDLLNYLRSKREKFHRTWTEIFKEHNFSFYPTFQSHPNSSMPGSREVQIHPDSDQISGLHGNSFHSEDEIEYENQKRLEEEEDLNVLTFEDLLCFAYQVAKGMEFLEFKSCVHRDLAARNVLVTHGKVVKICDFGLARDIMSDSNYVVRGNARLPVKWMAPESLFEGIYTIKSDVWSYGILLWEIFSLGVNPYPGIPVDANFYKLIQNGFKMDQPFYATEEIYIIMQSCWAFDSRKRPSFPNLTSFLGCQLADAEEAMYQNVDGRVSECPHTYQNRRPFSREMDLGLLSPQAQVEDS
Chain of Phosphatidylinositol 4-kinase alpha (Homo sapiens) (P42356 whole entry, looked up): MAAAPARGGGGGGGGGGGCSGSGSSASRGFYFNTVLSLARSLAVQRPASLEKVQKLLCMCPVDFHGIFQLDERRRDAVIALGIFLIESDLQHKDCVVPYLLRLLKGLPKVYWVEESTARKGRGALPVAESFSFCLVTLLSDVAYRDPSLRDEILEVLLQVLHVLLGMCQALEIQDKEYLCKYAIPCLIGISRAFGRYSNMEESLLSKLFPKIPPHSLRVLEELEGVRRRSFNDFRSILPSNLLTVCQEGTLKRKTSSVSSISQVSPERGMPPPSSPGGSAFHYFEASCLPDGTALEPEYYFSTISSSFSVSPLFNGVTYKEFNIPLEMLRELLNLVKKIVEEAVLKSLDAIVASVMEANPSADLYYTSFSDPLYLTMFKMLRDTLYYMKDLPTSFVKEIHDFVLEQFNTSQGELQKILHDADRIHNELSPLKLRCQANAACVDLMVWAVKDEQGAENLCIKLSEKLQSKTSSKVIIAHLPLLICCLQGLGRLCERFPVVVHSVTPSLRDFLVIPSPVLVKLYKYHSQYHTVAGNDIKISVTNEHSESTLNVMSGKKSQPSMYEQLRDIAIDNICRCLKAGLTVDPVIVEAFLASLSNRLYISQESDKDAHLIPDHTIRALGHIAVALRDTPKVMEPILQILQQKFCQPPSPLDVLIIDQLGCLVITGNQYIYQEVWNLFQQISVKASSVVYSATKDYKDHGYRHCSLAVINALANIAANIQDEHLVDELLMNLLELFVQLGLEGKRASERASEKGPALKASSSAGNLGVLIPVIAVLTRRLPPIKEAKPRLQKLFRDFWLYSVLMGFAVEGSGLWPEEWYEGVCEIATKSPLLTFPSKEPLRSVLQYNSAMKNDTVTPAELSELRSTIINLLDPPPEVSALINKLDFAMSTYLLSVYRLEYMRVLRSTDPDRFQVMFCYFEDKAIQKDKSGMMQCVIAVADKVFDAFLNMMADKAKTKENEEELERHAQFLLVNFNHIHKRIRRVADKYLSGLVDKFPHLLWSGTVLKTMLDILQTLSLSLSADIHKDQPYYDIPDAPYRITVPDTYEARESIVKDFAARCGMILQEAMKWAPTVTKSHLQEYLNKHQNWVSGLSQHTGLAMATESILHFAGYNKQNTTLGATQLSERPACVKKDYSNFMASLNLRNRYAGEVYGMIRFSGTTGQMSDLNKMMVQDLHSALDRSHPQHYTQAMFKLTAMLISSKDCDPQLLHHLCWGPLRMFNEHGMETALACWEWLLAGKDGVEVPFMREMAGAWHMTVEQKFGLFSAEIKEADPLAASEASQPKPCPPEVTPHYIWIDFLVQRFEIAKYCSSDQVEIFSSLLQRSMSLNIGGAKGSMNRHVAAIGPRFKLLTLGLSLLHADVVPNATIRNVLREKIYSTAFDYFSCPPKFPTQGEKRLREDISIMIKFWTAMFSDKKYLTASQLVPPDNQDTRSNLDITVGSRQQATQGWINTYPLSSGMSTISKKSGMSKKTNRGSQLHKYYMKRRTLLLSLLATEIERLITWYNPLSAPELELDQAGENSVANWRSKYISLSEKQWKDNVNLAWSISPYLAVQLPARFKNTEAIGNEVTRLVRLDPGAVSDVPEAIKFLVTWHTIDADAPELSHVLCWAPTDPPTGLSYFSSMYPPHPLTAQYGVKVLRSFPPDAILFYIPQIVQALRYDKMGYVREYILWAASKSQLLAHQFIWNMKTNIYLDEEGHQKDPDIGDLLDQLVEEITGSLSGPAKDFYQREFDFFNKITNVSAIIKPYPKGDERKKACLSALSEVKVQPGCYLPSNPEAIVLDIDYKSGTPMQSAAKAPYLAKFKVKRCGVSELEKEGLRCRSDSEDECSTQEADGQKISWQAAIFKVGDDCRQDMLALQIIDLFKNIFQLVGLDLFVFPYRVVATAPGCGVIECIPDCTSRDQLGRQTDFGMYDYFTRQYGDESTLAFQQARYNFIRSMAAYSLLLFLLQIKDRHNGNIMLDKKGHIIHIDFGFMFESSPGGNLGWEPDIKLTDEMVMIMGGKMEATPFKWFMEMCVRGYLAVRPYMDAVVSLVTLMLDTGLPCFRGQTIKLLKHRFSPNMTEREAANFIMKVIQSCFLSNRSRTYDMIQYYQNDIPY
Chain of Proto-oncogene tyrosine-protein kinase receptor Ret (Homo sapiens) (P07949 whole entry): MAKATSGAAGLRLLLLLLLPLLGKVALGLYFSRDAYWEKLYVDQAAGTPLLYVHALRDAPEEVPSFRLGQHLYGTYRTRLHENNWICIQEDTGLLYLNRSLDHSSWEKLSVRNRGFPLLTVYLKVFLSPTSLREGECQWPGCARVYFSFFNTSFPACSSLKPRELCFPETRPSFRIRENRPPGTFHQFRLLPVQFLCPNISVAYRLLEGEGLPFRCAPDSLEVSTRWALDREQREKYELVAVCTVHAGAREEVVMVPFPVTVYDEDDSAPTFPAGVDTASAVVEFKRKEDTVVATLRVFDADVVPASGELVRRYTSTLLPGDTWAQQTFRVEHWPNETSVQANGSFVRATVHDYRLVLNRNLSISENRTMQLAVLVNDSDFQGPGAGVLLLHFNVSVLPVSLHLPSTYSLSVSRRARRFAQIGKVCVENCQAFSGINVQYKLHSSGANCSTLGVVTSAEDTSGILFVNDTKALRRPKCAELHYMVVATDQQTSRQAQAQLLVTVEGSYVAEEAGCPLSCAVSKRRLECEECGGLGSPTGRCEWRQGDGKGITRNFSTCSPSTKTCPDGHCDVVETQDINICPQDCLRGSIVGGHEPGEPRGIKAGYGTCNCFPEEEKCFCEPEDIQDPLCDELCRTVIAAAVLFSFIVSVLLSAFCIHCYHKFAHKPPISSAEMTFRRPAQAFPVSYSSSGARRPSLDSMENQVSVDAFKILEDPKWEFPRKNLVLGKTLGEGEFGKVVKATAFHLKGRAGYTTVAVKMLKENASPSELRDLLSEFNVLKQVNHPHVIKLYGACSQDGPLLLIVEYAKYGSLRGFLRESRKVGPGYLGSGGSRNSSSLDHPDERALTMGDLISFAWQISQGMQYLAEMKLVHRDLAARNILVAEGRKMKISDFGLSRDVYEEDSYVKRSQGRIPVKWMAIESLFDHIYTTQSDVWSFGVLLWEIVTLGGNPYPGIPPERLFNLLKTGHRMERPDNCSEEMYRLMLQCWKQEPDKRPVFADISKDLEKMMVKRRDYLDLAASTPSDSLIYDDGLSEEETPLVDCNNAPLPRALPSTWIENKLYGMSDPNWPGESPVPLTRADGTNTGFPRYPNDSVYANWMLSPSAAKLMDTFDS

CC(C)Oc1cc(NC(=O)N2CCCc3cc(CN4CCN(C)CC4=O)c(C=O)nc32)ncc1C#Cc1cccnc1
IC50 [1]: > 10 µM | IC50 [2]: 0.0054 µM | IC50 [3]: > 10 µM | IC50 [4]: > 10 µM | IC50 (Huh-7): 0.0024 µM | IC50 (Hep 3B2 [5]): 0.104 µM | IC50 (MDA-MB-453): 0.14 µM | IC50 (NCI-H1581 [6]): > 3 µM | inhibition [7]: -5% | inhibition [8]: 1% | inhibition [9]: 10% | inhibition [10]: -2% | inhibition [11]: 10% | inhibition [12]: 5% | inhibition [13]: 5% | inhibition [14]: -3% | inhibition [15]: 3% | inhibition [16]: 8% | inhibition [17]: 6% | inhibition [18]: 10% | half-life [19]: 0.89 h | half-life [20]: 3.06 h | Cmax [21]: 11.1 µg/mL | Cmax [22]: 8.56 µg/mL | AUC(0-t) at 24 h [23]: 15.3 µg·h/mL | AUC(0-t) at 24 h [24]: 39 µg·h/mL | clearance [25]: 0.369 L/h/kg | bioavailability [26]: 51% | inhibition (BaF3 [27]): Dose-Dependent Effect | inhibition (BaF3 [28]): Dose-Dependent Effect | Kd [29]: 0.0062 µM | Activity (Hep 3B2 [30]): Active | Activity (NCI-H1581 [31]): Active | Activity (Hep 3B2 [32]): Active | Activity (NCI-H1581 [33]): Active | inhibition in vivo at 30 mg/kg (Hep 3B2 [34]): 95.2% | Activity [35]: Non-Toxic | Activity [36]: Non-Toxic | inhibition (BaF3 [37]): Dose-Dependent Effect
